According to US20220040136A1, “TREATMENT OF VULVOVAGINAL DISORDERS” (University of Rochester, priority 2018, published 2022):

Tested on: C57BL/6 mice
Assay: Mouse model of LPV (zymosan-induced vulvar allodynia), topical Maresin 1
Type: in vivo
Conditions: topical 1 μg/mouse/day, daily for 4 weeks
From the text: FIG. 9 is a diagram showing that PGE2 in vaginal lavage is associated with pain threshold. After induction of allodynia for up to 6 weeks (indicated by reduced pain threshold, red line), Maresin 1 was applied to C57BL/6 mouse vulvas to reduce pain and increase pain threshold. PGE2 content in vaginal lavage samples (blue line) rapidly increases during the induction phase, indicating pain-associated inflammation waning with treatment. SEM shown, n=8.
In the mouse model, zymosan (a proinflammatory yeast cell wall preparation) was used to induce sustained vulvar allodynia, measured by pain threshold testing. […]
Using this approach, inventors confirmed that one could induce vulvar allodynia, measure pain responses via mechanical threshold determination, and assess treatment responses. However, inventors implemented several modifications to improve the robustness of the model including the following: 1) use a genetically tractable inbred strain, 2) validation of the use of an electronic von Frey (EvF) system, 3) assessment of the impact of behavioral conditioning on pain response, 4) weekly collection of vulvovaginal lavages for proinflammatory mediator quantification, and 5) testing the ability of a selected SPM (e.g., Maresin 1) to modulate pain and inflammation in our new model. […]

Q: Which “PGE2 levels in vaginal lavage” value does the source give for CC/C=C\C/C=C\C[C@H](O)\C=C/C=C/C=C/[C@H](O)C/C=C\CCC(=O)O [Maresin 1, 7R,14S-docosa-4Z,8E,10E,12Z,16Z,19Z-hexaenoic acid] here?
A: suppressed and maintained at levels below baseline

Q: And the “pain threshold (electronic von Frey)” value (after allodynia induction)?
A: complete restoration to the pre-induction thresholds
